Test results from patent US7267815B2, “Methods and reagents for the enhancement of virus transduction in the bladder epithelium” (priority 2002, dated 2007).

How the values were obtained:
[1] = system: bladder epithelium; test: Effect of chemical agent pretreatment on adenovirus-mediated gene transfer and expression (Ad-βgal, X-gal staining); assay type: in vivo, mouse (BALB/c)
Procedure: 152 female BALB/c mice were used this study.
The route of administration of the chemical agent and virus was intravesical.
3. Based on the reagent being tested, bladder pretreatment was performed as follows:
Poloxomer 407 procedure: Washed 2 times with 100 μl each. Retained the 3rd wash for 5 min and gave one additional wash. Performed 3 times PBS wash prior to virus instillation.
Poloxomer 188 procedure: Washed 2 times with 100 μl each. Retained the 3rd wash for 5 minutes and gave one additional wash. Performed 3 times PBS wash prior to virus instillation.
Lipofectamine 2000 procedure: Added 5 μl of stock Lipofectamine (1 mg/ml) to 195 μl of PBS-10% glycerol. Mixed with an equal volume of Ad-βgal virus and incubated for 15 minutes. Administered 100 μl of the mixture intravesically and retained in the bladder for 30 minutes.
Benzyl Alcohol procedure: Washed 2 times with 100 μl each. Retained the 3rd wash for 15 minutes and then gave one additional wash. Performed 3 times PBS wash prior to virus instillation.
Performed 3 times PBS wash prior to virus instillation.
Polidocanol procedure: Washed 2 times with 100 μl each. Retained the 3rd wash for 5 min and then gave one additional wash. Performed 3 times PBS wash prior to virus instillation.
DC-Cho procedure: Washed 2 times with 100 μl each. Retained the 3rd wash for 5 min and then gave one additional wash. Performed 3 times PBS wash prior to virus instillation.
0.4% HPMC 2910 procedure: No pretreatment. An equal volume of the virus was mixed with 0.8% solution of HPMC2910 and the mixture was instilled into the bladder for 30 minutes.
100 mg/ml Poly-Lysine procedure: No pretreatment. An equal volume of the virus was mixed with 100 mg/ml solution of Poly-Lysine and the mixture was instilled into the bladder for 30 minutes.
0.4% polyvinyl alcohol (PVA) procedure: No pretreatment. An equal volume of the virus was mixed with 0.8% solution of PVA and the mixture was instilled into the bladder for 30 minutes.
n-dodecyl-β-D glucopyranoside procedure: Washed 2 times with 100 μl each. Retained the 3rd wash for 5 min and then gave one additional wash. Performed 3 times PBS wash prior to virus instillation.
0.4% PVP procedure: No pretreatment. An equal volume of the virus was mixed with 0.8% solution of PVP and the mixture was instilled into the bladder for 30 min.
0.1% cholesterol-cyclodextrin reagent procedure: No pretreatment. An equal volume of the virus was mixed with 0.2% solution of Cholesterol-Cyclodextrin and the mixture was instilled into the bladder for 30 minutes.
n-dodecyl-β-D-maltoside procedure: Washed 2 times with 100 μl each. Retained the 3rd wash for 5 min and then gave one additional wash. Performed 3 times PBS wash prior to virus instillation.
Sodium salt of dodecyl benzenesulfonic acid procedure: Washed 2 times with 100 μl each. Retained the 3rd wash for 5 min and then gave one additional wash. Performed 3 times PBS wash prior to virus instillation.
0.1% sodium dodecyl sulphate procedure: Wash 2 times with 100 μl each. Retained the 3rd wash for 5 min and then gave one additional wash. Performed 3 times PBS wash prior to virus instillation.
0.1% Tween 20 procedure: Washed 2 times with 100 μl each. Retained the 3rd wash for 5 min and then gave one additional wash. Performed 3 times PBS wash prior to virus instillation.
0.1% Triton® X-100 procedure: Washed 2 times with 100 μl each. Retained the 3rd wash for 5 min and then gave one additional wash. Perform 3 times PBS wash prior to virus instillation.
0.1% Forlan C-24 procedure: Washed 2 times with 100 μl each. Retained the 3rd wash for 5 min and then gave one additional wash. Performed 3 times PBS wash prior to virus instillation.
0.1% decyl-b-D-maltoside procedure: Washed 2 times with 100 μl each. Retained the 3rd wash for 5 min and then gave one additional wash. Performed 3 times PBS wash prior to virus instillation.
0.1% 6-cyclohexylhexyl-b-D-maltoside procedure: Washed 2 times with 100 μl each. […]

[2] = system: mice bladder urothelium; test: Effects of different diluents on adenovirus infectivity after DDM pretreatment; assay type: in vivo, Balb/c Mouse; conditions: DDM pretreatment (QQ5 minQ); virus diluted 100 fold with different diluents, 45 min, 1×10^9 vp/dose
Procedure: • Species: Female Balb/c Mouse (Taconic Laboratory)—2/group • Study Design: To test the effects of different diluents on Adenovirus infectivity of mice urothelium followed DDM pretreatment (QQ5 minQ). The virus would be diluted 100 fold with the diluents prior to instillation into mice bladder for 45 min. • Dose/Route:
Dodecyl-β-D-Maltoside (Lot #100K5308).
All the animals had >90% in Ad-βgal gene expression in mice bladder. Adenovirus Dose Titration with Different Chemical Agents Pretreatment on SD Rat Bladder Epithelium • Species: Female Sprague Dawley Rat (Taconic Laboratory)—2/group • Study Design: To test the virus infectivity of rat bladder epithelium with different doses of Adenovirus following the pretreatment with SDS or DDM. This study also explored relationship between bladder volume and residual of SDS or DDM for adenovirus infectivity. • Dose/Route: […]

[3] = system: mice bladder urothelium; test: DDM from two suppliers as pretreatment agent prior to adenovirus infection; assay type: in vivo, Balb/c Mouse; conditions: two different lots of DDM, pretreatment QQ5 minQ, 1×10^10 vp/dose for 15 min
Source text: Rat bladders infected with 4×10^10 vp adenovirus achieved >90% Ad-βgal gene expression levels whereas rat bladders infected with 4×10^9 vp adenovirus had Ad-βgal gene expression levels range from 30% to 50%. […] Efficacy of Dodecyl-β-D-Maltoside as a Pretreatment Agent Prior to Adenovirus Infection of Mice Bladder Urothelium • Species: Female Balb/c Mouse (Taconic Laboratory)—2/group • Study Design: To test DDM from two different suppliers as pretreatment agents to enhance the adenovirus infection of mice bladder urothelium in a large group of animals. • Dose/Route:
In each case, >90% Ad-βgal expression was achieved. Therefore, DDM from either manufacturer is a good candidate for a chemical enhancer for adenovirus infection in mice bladder. Efficacy of Dodecyl-β-D-Maltoside as Chemical Enhancer Prior to Adenovirus Infection of SW780+ Luc Orthotopic Bladder Tumor Model in Mice • Species: Female NCR nu/nu Mouse (Taconic Laboratory)-2/group • Study Design: To show DDM pretreatments enhance Ad.Lac Z infectivity in mice bladder urothelium. To further confirm the enhancer effect on orthotopic tumors, two mice bearing orthotopic SW780 bladder tumors were pretreated with or without DDM (QQ5 minQ) followed by 15 min Ad.Lac Z instillation. The Ad.Lac Z gene expression levels were checked in these tumor cells 4 days post Ad.Lac Z infection. • Dose/Route: […]

[4] = system: adenovirus; test: Study #3: compatibility of adenovirus with selected enhancers (plaque assay); assay type: physicochemical
Procedure: For this study, each sample was incubated at 37° C. or 25° C. before the plaque assay started.

CCCCCCCCCCCCO[C@@H]1O[C@H](CO)[C@@H](O[C@H]2O[C@H](CO)[C@@H](O)[C@H](O)[C@H]2O)[C@H](O)[C@H]1O [n-dodecyl β-D-maltoside, n-dodecyl-β-D-maltoside]
response class (level of transduction) [1]: strongest response | transduction of the urothelium ([1]; 0.02% pre-treatment for 5 minutes): 50-80% | transduction of the urothelium ([1]; 0.05% pre-treatment for 5 minutes): > 90% | transduction of the urothelium ([1]; 0.2% pre-treatment for 5 minutes): > 90% | effect on transduction (in words) ([1]; bladder pretreatment followed by Ad-LacZ): increased transduction significantly | Ad-βgal gene expression in mice bladder [2]: > 90% | Ad-βgal expression [3]: > 90% | Average pfu/mL ([4]; 25° C., 2 hours): 1.32E+10 pfu/mL | Ratio vp/pfu ([4]; 25° C., 2 hours): 16 vp/pfu | Average pfu/mL ([4]; 37° C., 1 hour): 1.36E+10 pfu/mL | Ratio vp/pfu ([4]; 37° C., 1 hour): 16 vp/pfu | compatibility with the adenovirus (in words) ([4]; under the experimental conditions of Table 5): compatible with the adenovirus
